# Experimental data: patent publication US10179816B2, “Pharmaceutical compositions comprising an antibody which binds the human anti-Müllerian hormone receptor type II” (LABORATOIRE FRANCAIS DU FRACTIONNEMENT DES BIOTECHNOLOGIES, priority 2011, dated 2019)
# Where “and” joins values, the source holds several entries; their conditions need not be identical. Identical values can stand only once. Entries after “also recorded” stand apart in the source; their conditions may differ. Like-named read-outs stand apart in the source and are kept apart here.
# How the values were obtained:
# [1] = system: Cov434-AMHRII Asc1a5 tumour cells;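 note: control mice received NaCl solution, survival endpoint was euthanasia once tumour volume hit 2000 mm^3 or on ethical grounds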
# Source text: A solution of NaCl was used as the control.
# The animals were sacrificed when the tumour volumes reached 2000 mm^3 or for ethical reasons. The curves of mean values and median values as well as the statistical analyses were stopped when 20% of the mice in the group were dead.
# [2] = target: T1, human anti-Müllerian hormone type II receptor (AMHR-II) (Homo sapiens, UniProt Q16671); details: compared with unmutated humanized and chimeric 12G4; cited from earlier work
# T1 sequence (Q16671 18-573): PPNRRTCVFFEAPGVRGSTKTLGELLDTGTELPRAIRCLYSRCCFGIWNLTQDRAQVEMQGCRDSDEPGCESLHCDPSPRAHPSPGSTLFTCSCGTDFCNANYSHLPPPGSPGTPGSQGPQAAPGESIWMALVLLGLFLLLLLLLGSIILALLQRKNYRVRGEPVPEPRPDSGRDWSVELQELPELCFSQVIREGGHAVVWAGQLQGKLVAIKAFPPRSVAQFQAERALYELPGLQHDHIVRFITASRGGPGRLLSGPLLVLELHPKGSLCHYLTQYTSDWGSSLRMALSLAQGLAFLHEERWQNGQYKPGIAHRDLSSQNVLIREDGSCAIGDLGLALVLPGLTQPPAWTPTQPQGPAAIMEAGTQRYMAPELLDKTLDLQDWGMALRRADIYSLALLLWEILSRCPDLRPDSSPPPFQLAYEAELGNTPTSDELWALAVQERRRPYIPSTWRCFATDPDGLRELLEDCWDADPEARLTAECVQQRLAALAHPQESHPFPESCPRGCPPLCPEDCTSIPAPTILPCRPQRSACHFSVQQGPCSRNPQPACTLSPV
# [3] = system: Cov434-AMHRII Asc1a5 (cell line of human ovarian cancer transfected with cDNA AMHRII); test: Anti-tumour activity of 3C23K alone or with carboplatin in Cov434-AMHRII Asc1a5 xenograft (tumour volume, T/C ratio, statistical analysis); format: in vivo, female Swiss nude mouse
# Protocol: The 3C23K antibody was evaluated according to the following scheme: 2 times per week for 6 weeks, for a total of 12 injections at about 10 mg/kg/injection, said administration regimen being designated below as “Q3-4D12”. Another group of mice was treated with an irrelevant antibody LFB-R565, administered at about 10 mg/kg/injection, according to the regimen Q3-4D12.
# Carboplatin was evaluated, at a sub-optimum dose, i.e. about 60 mg/kg/injection, according to the following scheme: once a week, for 4 weeks, said administration regimen being designated below as “Q7D4”.
# Carboplatin was also evaluated in combination with the 3C23K antibody or with the irrelevant antibody LFB-R565. Carboplatin was administered at about 60 mg/kg/injection according to the Q7D4 regimen and the 3C23K antibody or the irrelevant antibody LFB-R565 at about 10 mg/kg/injection according to the regimen Q3-4D12.
# The mice were randomized on D11, when the volume of the tumours was between 50 and 158 mm^3, and the treatments began on D13 (9 mice per group).
# The tumours were usually measured twice weekly.
# The curves of the individual volume of the tumours were plotted.
# In one experiment with 9 mice per group, the curves and analyses were therefore stopped when fewer than 8 values per group had been obtained (8 mice alive).
# A Kruskal-Wallis test was also carried out.
# [4] = D11, randomization, before treatment
substance,measurement,setting,value
"3C23K: mutated humanized 12G4 monoclonal antibody binding AMHR-II, produced by the 3C23K clone; light chain SEQ ID NO: 11, heavy chain SEQ ID NO: 13",Survival parameter: logrank test chi-squared,[1]; contrast vs control,11.15
same,Survival parameter: logrank test chi-squared,[1]; contrast vs paclitaxel 15 mg/kg q7d4,12.36
same,Survival parameter Mean,[1]; group of 8 mice,70 days
same,Survival parameter Median,[1]; group of 8 mice,73 days
same,Observations: End of experiment TV,[1]; individual mice alive at day 83,1615 mm3 and 1463 mm3
same,Observations,"[1]; individual mice alive at day 83, end of experiment",End of experiment no
same,survival parameter,"[1]; individual mice, experiment ended on day 83",51 Days and 55 Days and 62 Days and 69 Days and 76 Days and 83 Days (3×)
same,Statistical analysis based on the survival parameter (in words),"[1]; mouse, in vivo",significant anti-tumour activity; also recorded: significantly different from that of paclitaxel in monotherapy
same,Affinity for AMHR-II (in words),[2],affinity far better than that of the unmutated humanized 12G4 antibody
same,Individual tumour volume,[3]; [4],98 mm^3 and 90 mm^3 and 61 mm^3 and 80 mm^3 and 57 mm^3 and 147 mm^3 and 113 mm^3 and 72 mm^3
same,Mean tumour volume,[3]; [4],88 mm^3
same,Median tumour volume,[3]; [4],80 mm^3
same,Individual tumour volume,[3]; D14,104 mm^3 and 179 mm^3 and 60 mm^3 and 72 mm^3 and 67 mm^3 and 216 mm^3 and 166 mm^3 and 84 mm^3
same,Mean tumour volume,[3]; D14,111 mm^3
same,Median tumour volume,[3]; D14,84 mm^3
same,Individual tumour volume,[3]; D18,72 mm^3 (2×) and 88 mm^3 and 36 mm^3 and 21 mm^3 and 41 mm^3 and 140 mm^3 and 80 mm^3
same,Mean tumour volume,[3]; D18,67 mm^3
same,Median tumour volume,[3]; D18,72 mm^3
same,Individual tumour volume,[3]; D22,60 mm^3 and 150 mm^3 and 30 mm^3 and 0 mm^3 and 36 mm^3 and 131 mm^3 and 77 mm^3 and 158 mm^3
same,Mean tumour volume,[3]; D22,79 mm^3
same,Median tumour volume,[3]; D22,70 mm^3
same,Individual tumour volume,[3]; D25,0 mm^3 (3×) and 126 mm^3 and 24 mm^3 and 180 mm^3 and 74 mm^3 and 216 mm^3
same,Mean tumour volume,[3]; D25,79 mm^3
same,Median tumour volume,[3]; D25,74 mm^3
same,Individual tumour volume,[3]; D29,0 mm^3 (2×) and 322 mm^3 and 27 mm^3 and 48 mm^3 and 225 mm^3 and 146 mm^3 and 385 mm^3
same,Mean tumour volume,[3]; D29,151 mm^3
same,Median tumour volume,[3]; D29,146 mm^3
same,Individual tumour volume,[3]; D32,0 mm^3 (2×) and 501 mm^3 and 27 mm^3 and 15 mm^3 and 275 mm^3 and 180 mm^3 and 644 mm^3
same,Mean tumour volume,[3]; D32,221 mm^3
same,Median tumour volume,[3]; D32,180 mm^3
same,Individual tumour volume,[3]; D36,0 mm^3 (3×) and 653 mm^3 and 87 mm^3 and 363 mm^3 and 182 mm^3 and 784 mm^3
same,Mean tumour volume,[3]; D36,278 mm^3
same,Median tumour volume,[3]; D36,182 mm^3
same,Individual tumour volume,[3]; D39,0 mm^3 (3×) and 784 mm^3 and 210 mm^3 and 315 mm^3 and 182 mm^3 and 1200 mm^3 and 546 mm^3
same,Mean tumour volume,[3]; D39,360 mm^3
same,Median tumour volume,[3]; D39,210 mm^3
same,Individual tumour volume,[3]; D43,0 mm^3 (3×) and 1171 mm^3 and 420 mm^3 and 631 mm^3 and 393 mm^3 and 1403 mm^3 and 731 mm^3
same,Mean tumour volume,[3]; D43,528 mm^3
same,Median tumour volume,[3]; D43,420 mm^3
same,Individual tumour volume,[3]; D46,0 mm^3 (3×) and 1683 mm^3 and 598 mm^3 and 504 mm^3 and 275 mm^3 and 1650 mm^3 and 518 mm^3
same,Mean tumour volume,[3]; D46,581 mm^3
same,Median tumour volume,[3]; D46,504 mm^3
same,Individual tumour volume,[3]; D49,0 mm^3 (3×) and 1870 mm^3 and 1188 mm^3 and 784 mm^3 and 655 mm^3 and 2646 mm^3 and 945 mm^3
same,Mean tumour volume,[3]; D49,899 mm^3
same,Median tumour volume,[3]; D49,784 mm^3
same,Anti-tumour activity (in words),"[3]; carboplatin study, comparator as stated in the sentence",significant anti-tumour activity; also recorded: anti-tumour effect greater than carboplatin; also recorded: exerts anti-tumour activity
same,T/C ratio,"[3]; relative to Control group, D11 (before treatment)",88%
same,T/C ratio,"[3]; relative to Control group, D14",52%
same,T/C ratio,"[3]; relative to Control group, D18",33%
same,T/C ratio,"[3]; relative to Control group, D22",18%
same,T/C ratio,"[3]; relative to Control group, D25",17%
same,T/C ratio,"[3]; relative to Control group, D29",23%
same,T/C ratio,"[3]; relative to Control group, D32",18%
same,T/C ratio,"[3]; relative to Control group, D36",12%
same,T/C ratio,"[3]; relative to LFB-R565, after D18 up to D36",less than 26%
same,T/C ratio,"[3]; relative to LFB-R565 group, D11 (before treatment)",99%
same,T/C ratio,"[3]; relative to LFB-R565 group, D14",55%
same,T/C ratio,"[3]; relative to LFB-R565 group, D18",41%
same,T/C ratio,"[3]; relative to LFB-R565 group, D22",26%
same,T/C ratio,"[3]; relative to LFB-R565 group, D25",18%
same,T/C ratio,"[3]; relative to LFB-R565 group, D29",21%
same,T/C ratio,"[3]; relative to LFB-R565 group, D32",26%
same,T/C ratio,"[3]; relative to LFB-R565 group, D36",10%
same,T/C ratio,"[3]; relative to carboplatin group, D11 (before treatment)",99%
same,T/C ratio,"[3]; relative to carboplatin group, D14",63%
same,T/C ratio,"[3]; relative to carboplatin group, D18",64%
same,T/C ratio,"[3]; relative to carboplatin group, D22",26%
same,T/C ratio,"[3]; relative to carboplatin group, D25",31%
same,T/C ratio,"[3]; relative to carboplatin group, D29",41%
same,T/C ratio,"[3]; relative to carboplatin group, D32",39%
same,T/C ratio,"[3]; relative to carboplatin group, D36",29%
same,T/C ratio,"[3]; relative to carboplatin group, D39",32%
same,T/C ratio,"[3]; relative to carboplatin group, D43",48%
same,T/C ratio,"[3]; relative to carboplatin group, from D22 to D39",less than 42%
same,T/C ratio,"[3]; relative to control, after D18 (from D22) up to D36",less than 23%
